Measurements from paper doi:10.1101/2025.08.21.671593v1, “Suppression and modulation mechanism underlying the flavonoid-induced inhibition of fibrillation of α-synuclein” (biorxiv, 2025).

Biological target: T1, α-synuclein (α-Syn, αSyn), monomeric (Homo sapiens, UniProt P37840)
T1 construct: gene SNCA; purified, unfolded monomer
Assay: intrinsic tyrosine fluorescence quenching, modified Stern-Volmer plot
Details: 37 °C; protein 0.3 mg/mL, Cyanidin 2-30 μM; about 1:1; double-log; printed '8.4×10[5]'; paper calls it weak binding (mM range), which conflicts with this value

In the case of `Oc1cc(O)c2cc(O)c(-c3ccc(O)c(O)c3)[o+]c2c1` [Cyanidin], the Ka was 840000 M⁻¹.
